Test results from publication PMC5884870, “Antioxidant Role of PcGSTd1 in Fenpropathrin Resistant Population of the Citrus Red Mite, Panonychus citri (McGregor)” (Frontiers in Physiology, 2018).

Tests used:
PcGSTd1 [1] = target: T1, PcGSTd1 (Panonychus citri, UniProt H9BTE1); test: CDNB-GSH conjugation, absorbance […] nm; assay type: biochemical; details: 0.6 mM CDNB, 5 mM GSH, 0.05 M Tris-HCl pH 7.5; ECA 0.05-2 mM
T1 construct: full ORF in pET-28a (BamHI/NotI), His-tag kept (Ni-NTA), E. coli TransBL21(DE3); EC 2.5.1.18
T1 sequence (H9BTE1 1-217): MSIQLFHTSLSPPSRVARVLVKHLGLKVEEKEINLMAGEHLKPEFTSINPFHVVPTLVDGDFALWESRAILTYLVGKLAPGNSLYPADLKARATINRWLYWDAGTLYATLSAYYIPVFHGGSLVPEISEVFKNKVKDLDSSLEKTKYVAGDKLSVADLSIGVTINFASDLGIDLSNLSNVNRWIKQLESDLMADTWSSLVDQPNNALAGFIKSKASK

PcGSTd1 [2] = target: T1, PcGSTd1; test: CDNB-GSH conjugation, absorbance […] nm, Lineweaver-Burk; assay type: biochemical; details: co-substrate GSH; 28 C

SMILES | IC50 (PcGSTd1 [1]) [µM] | Km (PcGSTd1 [2]) [µM]
C=C(CC)C(=O)c1ccc(OCC(=O)O)c(Cl)c1Cl [ethacrynic acid] | 1130 ± 120 | –
O=[N+]([O-])c1ccc(Cl)c([N+](=O)[O-])c1 [1-chloro-2,4-dinitrobenzene] | – | 1820 ± 490
